Assay results: PubChem BioAssay AID1259407 (Chemical Carcinogenesis Research Information System (CCRIS), 2018)
Activity calls are given as the source filed them. The rule behind the calls is not given here.

System: CCRIS mutagenicity, Ames/micronucleus/aberration tests
Experiment: CCRIS mutagenicity studies

Measured: mutagenic call

ClCCl
inactive: End Point: IN VITRO CHROMOSOMAL ABERRATIONS, Test System: CHO CELLS, Metabolic Activation: NONE inactive; negative | End Point: IN VITRO CHROMOSOMAL ABERRATIONS, Test System: CHO CELLS, Metabolic Activation: RAT, LIVER, S-9, AROCLOR 1254 inactive; negative | Test System: AMES SALMONELLA TYPHIMURIUM, Strain/Indicator: TA98, Metabolic Activation: NONE, Method: STANDARD PLATE inactive; negative | Test System: AMES SALMONELLA TYPHIMURIUM, Strain/Indicator: TA102, Metabolic Activation: NONE, Method: STANDARD PLATE inactive; negative | Test System: AMES SALMONELLA TYPHIMURIUM, Strain/Indicator: TA104, Metabolic Activation: RAT, LIVER, S-9, AROCLOR 1254, Method: STANDARD PLATE inactive; negative | Test System: AMES SALMONELLA TYPHIMURIUM, Strain/Indicator: TA1535, Metabolic Activation: NONE, Method: STANDARD PLATE inactive; negative | Test System: AMES SALMONELLA TYPHIMURIUM, Strain/Indicator: TA1537, Metabolic Activation: NONE, Method: GAS EXPOSURE inactive; negative | Test System: AMES SALMONELLA TYPHIMURIUM, Strain/Indicator: TA1537, Metabolic Activation: RAT, LIVER, S-9, PHENOBARBITAL AND BETA-NAPHTHOFLAVONE, Method: GAS EXPOSURE inactive; negative | Test System: AMES SALMONELLA TYPHIMURIUM, Strain/Indicator: TA2638, Metabolic Activation: NONE, Method: STANDARD PLATE inactive; negative | Test System: CHINESE HAMSTER OVARY, Strain/Indicator: CHO-K1 (HPRT)/6-THIOGUANINE, Metabolic Activation: MOUSE, LIVER, S-100 (15-25%), DL-BUTHIONINE-(S,R)-SULFOXIMINE, Method: SUSPENSION inactive; negative | Test System: E. COLI, Strain/Indicator: K12(AB1157), Metabolic Activation: NONE, Method: SUSPENSION/PLATE inactive; negative | Test System: E. COLI, Strain/Indicator: K12(AB1157), Metabolic Activation: RAT, LIVER, S-9, Method: SUSPENSION/PLATE inactive; negative | Test System: E. COLI, Strain/Indicator: K12(AB1886) UVRA, Metabolic Activation: MOUSE, LIVER, S-9, Method: SUSPENSION/PLATE inactive; negative | Test System: E. COLI, Strain/Indicator: K12(AB1886) UVRA, Metabolic Activation: NONE, Method: SUSPENSION/PLATE inactive; negative | Test System: E. COLI, Strain/Indicator: K12(AB1886) UVRA, Metabolic Activation: RAT, LIVER, S-9, Method: SUSPENSION/PLATE inactive; negative | Test System: E. COLI, Strain/Indicator: WP2 (PKM101), Metabolic Activation: NONE, Method: STANDARD PLATE inactive; negative | Test System: E. COLI, Strain/Indicator: WP2 UVRA (PKM101), Metabolic Activation: NONE, Method: STANDARD PLATE inactive; negative | Test System: Mouse lymphoma, Strain/Indicator: L5178Y (tk+/tk-), Metabolic Activation: None, Method: Suspension/plate inactive; negative | Test System: Mouse lymphoma, Strain/Indicator: L5178Y (tk+/tk-), Metabolic Activation: Rat, Liver, S-9, Aroclor 1254, Method: Suspension/plate inactive; negative
active: Test System: AMES SALMONELLA TYPHIMURIUM, Strain/Indicator: NG54 (GSH), Metabolic Activation: GLUTATHIONE active; positive | Test System: AMES SALMONELLA TYPHIMURIUM, Strain/Indicator: NG54 (GSH), Metabolic Activation: NONE active; positive | Test System: AMES SALMONELLA TYPHIMURIUM, Strain/Indicator: NG54 (GSH), Metabolic Activation: RAT, LIVER, S-9, AROCLOR 1254 active; positive | Test System: AMES SALMONELLA TYPHIMURIUM, Strain/Indicator: NG54 (GSH), Metabolic Activation: RAT, LIVER, S-9, AROCLOR 1254, GLUTATHIONE active; positive | Test System: AMES SALMONELLA TYPHIMURIUM, Strain/Indicator: NG-11, Metabolic Activation: GLUTATHIONE, Method: DESICCATOR active; positive | Test System: AMES SALMONELLA TYPHIMURIUM, Strain/Indicator: NG-11, Metabolic Activation: NONE, Method: DESICCATOR active; positive | Test System: AMES SALMONELLA TYPHIMURIUM, Strain/Indicator: RSJ100, Metabolic Activation: NONE, Method: STANDARD PLATE active; positive | Test System: AMES SALMONELLA TYPHIMURIUM, Strain/Indicator: TA97, Metabolic Activation: NONE, Method: STANDARD PLATE active; positive | Test System: AMES SALMONELLA TYPHIMURIUM, Strain/Indicator: TA97, Metabolic Activation: RAT, LIVER, S-9, AROCLOR 1254, Method: STANDARD PLATE active; positive | Test System: AMES SALMONELLA TYPHIMURIUM, Strain/Indicator: TA98, Metabolic Activation: NONE, Method: GAS EXPOSURE active; positive | Test System: AMES SALMONELLA TYPHIMURIUM, Strain/Indicator: TA98, Metabolic Activation: RAT, LIVER, S-9, AROCLOR 1254, Method: STANDARD PLATE active; positive | Test System: AMES SALMONELLA TYPHIMURIUM, Strain/Indicator: TA98, Metabolic Activation: RAT, LIVER, S-9, PHENOBARBITAL AND BETA-NAPHTHOFLAVONE, Method: GAS EXPOSURE active; positive | Test System: AMES SALMONELLA TYPHIMURIUM, Strain/Indicator: TA98, Metabolic Activation: RAT, LIVER, S-9, PHENOBARBITAL, Method: DESICCATOR active; positive | Test System: AMES SALMONELLA TYPHIMURIUM, Strain/Indicator: TA100, Metabolic Activation: GLUTATHIONE active; positive | Test System: AMES SALMONELLA TYPHIMURIUM, Strain/Indicator: TA100, Metabolic Activation: GLUTATHIONE, Method: DESICCATOR active; positive | Test System: AMES SALMONELLA TYPHIMURIUM, Strain/Indicator: TA100, Metabolic Activation: NONE active; positive | Test System: AMES SALMONELLA TYPHIMURIUM, Strain/Indicator: TA100, Metabolic Activation: NONE, Method: DESICCATOR active; positive | Test System: AMES SALMONELLA TYPHIMURIUM, Strain/Indicator: TA100, Metabolic Activation: NONE, Method: GAS EXPOSURE active; positive | Test System: AMES SALMONELLA TYPHIMURIUM, Strain/Indicator: TA100, Metabolic Activation: RAT, LIVER, MICROSOMES, AROCLOR 1254 active; positive | Test System: AMES SALMONELLA TYPHIMURIUM, Strain/Indicator: TA100, Metabolic Activation: RAT, LIVER, S-9, AROCLOR 1254 active; positive | Test System: AMES SALMONELLA TYPHIMURIUM, Strain/Indicator: TA100, Metabolic Activation: RAT, LIVER, S-9, AROCLOR 1254, GLUTATHIONE active; positive | Test System: AMES SALMONELLA TYPHIMURIUM, Strain/Indicator: TA100, Metabolic Activation: RAT, LIVER, S-9, AROCLOR 1254, Method: STANDARD PLATE active; positive | Test System: AMES SALMONELLA TYPHIMURIUM, Strain/Indicator: TA100, Metabolic Activation: RAT, LIVER, S-9, PHENOBARBITAL AND BETA-NAPHTHOFLAVONE, Method: GAS EXPOSURE active; positive | Test System: AMES SALMONELLA TYPHIMURIUM, Strain/Indicator: TA100, Metabolic Activation: RAT, LIVER, S-9, PHENOBARBITAL, Method: DESICCATOR active; positive | Test System: AMES SALMONELLA TYPHIMURIUM, Strain/Indicator: TA100, Metabolic Activation: RAT, LIVER, S-100, AROCLOR 1254 active; positive | Test System: AMES SALMONELLA TYPHIMURIUM, Strain/Indicator: TA104, Metabolic Activation: NONE, Method: STANDARD PLATE active; positive | Test System: AMES SALMONELLA TYPHIMURIUM, Strain/Indicator: TA1535 (GST+), Metabolic Activation: NONE, Method: STANDARD PLATE active; positive | Test System: AMES SALMONELLA TYPHIMURIUM, Strain/Indicator: TA1535, Metabolic Activation: NONE, Method: GAS EXPOSURE active; positive | Test System: AMES SALMONELLA TYPHIMURIUM, Strain/Indicator: TA1535, Metabolic Activation: RAT, LIVER, S-9, PHENOBARBITAL AND BETA-NAPHTHOFLAVONE, Method: GAS EXPOSURE active; positive | Test System: CHINESE HAMSTER OVARY, Strain/Indicator: CHO-K1 (HPRT)/6-THIOGUANINE, Metabolic Activation: MOUSE, LIVER, S-100 (2.5-25%), 5 MILLIMOLAR GLUTATHIONE, Method: SUSPENSION/PLATE active; positive | Test System: CHINESE HAMSTER OVARY, Strain/Indicator: CHO-K1 (HPRT)/6-THIOGUANINE, Metabolic Activation: MOUSE, LIVER, S-100 (15-35%), 5 MILLIMOLAR GLUTATHIONE, Method: SUSPENSION active; positive | Test System: E. COLI, Strain/Indicator: K12(AB1157), Metabolic Activation: MOUSE, LIVER, S-9, Method: SUSPENSION/PLATE active; positive | Test System: E. COLI, Strain/Indicator: WP2 UVRA (PKM101), Metabolic Activation: NONE active; positive | Test System: E. COLI, Strain/Indicator: WP2 UVRA (PKM101), Metabolic Activation: RAT, LIVER, HOMOGENATE, AROCLOR 1254 active; positive | Test System: E. COLI, Strain/Indicator: WP2 UVRA (PKM101), Metabolic Activation: RAT, LIVER, MICROSOMES, AROCLOR 1254 active; positive | Test System: E. COLI, Strain/Indicator: WP2 UVRA (PKM101), Metabolic Activation: RAT, LIVER, S-9, AROCLOR 1254 active; positive | Test System: E. COLI, Strain/Indicator: WP2 UVRA (PKM101), Metabolic Activation: RAT, LIVER, S-100, AROCLOR 1254 active; positive | Test System: E. COLI, Strain/Indicator: WP2UVRA/PKM101, Metabolic Activation: NONE, Method: GAS EXPOSURE active; positive | Test System: E. COLI, Strain/Indicator: WP2UVRA/PKM101, Metabolic Activation: RAT, LIVER, S-9, PHENOBARBITAL AND BETA-NAPHTHOFLAVONE, Method: GAS EXPOSURE active; positive | Test System: E. COLI, Strain/Indicator: WP2UVRA, Metabolic Activation: NONE, Method: GAS EXPOSURE active; positive | Test System: E. COLI, Strain/Indicator: WP2UVRA, Metabolic Activation: RAT, LIVER, S-9, PHENOBARBITAL AND BETA-NAPHTHOFLAVONE, Method: GAS EXPOSURE active; positive
